Measurements: publication PMC4595834, “Comparison of carbon-sulfur and carbon-amine bond in therapeutic drug: 4β-S-aromatic heterocyclic podophyllum derivatives display antitumor activity” (Scientific Reports, 2015)
Read-outs that look alike come from different tables or passages of the source.

What was measured:
[1] = MTT cytotoxicity assay, normal hepatocyte HL-7702; assay type: cell-based; conditions: HL-7702 cells (normal hepatocyte cell line), normal human hepatocyte cell line, drug exposure 48 h, mean ± SD (n = 3), read-out: Cytotoxic activity (IC50) HL-7702
Method: (§1) Cytotoxicity of the podophyllum derivatives were determined by reading the absorbance at 492 nm on a multiplate reader (Thermo Fisher Scientific, Multiskan MK3). Cell cycle analysis and apoptosis analysis were analyzed by flow cytometry (Accuri C6, BD). Immunofluorescence images were recorded using laser scanning microscope (Perkin-Elmer & Olympus, UltraView VoX & Ix81). The gel for the decatenation of kDNA by Topoisomerase II study was photographed with UV illumination, Tanon 1600 (Tanon Science & Technology Co., Ltd., Shanghai). The nitrocellulose blotting membrane for western blot analysis was visualized using X-ray film processor and X-ray film, Fujifilm SUPER RX-N-C.
(§2) Cytotoxicity assay was performed on human lung adenocarcinoma epithelial cell line (A549), henrietta lacks strain of cancer cells (HeLa), human gastric carcinoma cell line (BGC 823), and normal human hepatocyte cell line (HL-7702). Cells (3500–13,000) in a 100 μL culture medium per well were seeded into 96-well microtest plates (Falcon, CA). A549 cell lines, HeLa cell lines and HL-7702 cell lines were cultured in DMEM supplemented with 10% CS, 100 mg/L penicillin G, 100 mg/L streptomycin. BGC 823 cell lines were cultured in RPMI medium 1640 supplemented with 10% CS, 100 mg/L penicillin G, and 100 mg/L streptomycin. The cells were incubated at 37 °C, in a humidified atmosphere with 5% CO2 for 48 h. For all cell lines, the microculture tetrazolium [3-(4, 5-dimethylthiazol-2-yl)-2, 5-diphenyltetrazolium bromide, MTT; Sigma, St. Louis, MO] assay was performed to measure the cytotoxic effects. Drug stock solutions (the each drug concentration was 0.5, 1, 10, 20, 50, 100, 200, and 500 μM, respectively) were prepared in DMSO and the final solvent concentration was ≤ 2% DMSO (v/v), a concentration without effect on cell replication. Initial seeding densities varied among the cell lines to ensure a final absorbance reading in control (untreated) cultures in the range 0.6–0.8 A492 units. Drug exposure was for 2 days, and the IC50 value, the drug concentration that reduced the absorbance by 50%, was interpolated from dose-response data. Each test was performed in triplicate, and absorbance readings varied no more than 5%. Data presented as means ± standard deviation (SD). Statistical analyses were performed by the analysis of variance (ANOVA). All statistical analyses were performed using Origin version 8.0 ([…], OriginLab Corp., Northampton, MA, USA). Sigmoidal dose responses and non-linear regression analyses were undertaken to identify half-maximal concentrations for each of the drugs. To evaluate differences in IC50 concentrations, analysis of variance combined with Tukey’s multiple range test was used.

A549 cells = experiment: MTT cytotoxicity assay, A549; assay type: cell-based, human; conditions: MTT, drug exposure 48 h, mean ± SD (n = 3), read-out: Cytotoxic activity (IC50) A549
Method: as §1, §2

HeLa cells [2] = experiment: MTT cytotoxicity assay, HeLa; assay type: cell-based, human; conditions: Homo sapiens, HeLa; MTT, drug exposure 48 h, mean ± SD (n = 3); read-out: Cytotoxic activity (IC50) HeLa
Method: as §1, §2

BGC-823 cells = experiment: MTT cytotoxicity assay, BGC-823; assay type: cell-based, human; conditions: Homo sapiens, BGC-823; MTT, drug exposure 48 h, mean ± SD (n = 3); read-out: Cytotoxic activity (IC50) BGC-823
Method: as §1, §2

HeLa cells [3] = experiment: Western blot of apoptosis pathway proteins in HeLa cells; assay type: cell-based, human; conditions: 1 μM, 0-48 h
Method: Cells were lysed by adding 100 μL of RIPA buffer (50 mM Tris, pH 8.0, 150 mM NaCl, 1% TX-100, 0.5% sodium deoxycholate, 0.1% SDS) with 1% Protease Inhibitor PMSF. Each sample was then vigorously vortexed twice for 15 seconds, with a 30-minute incubation on ice following each agitation. The cellular debris was pelleted (12,000 rpm, 10 min), and then 100 μL of the protein suspension was transferred to fresh 0.5 mL tubes. The protein levels were quantified using a standard BCA (Thermo Scientific), after which the samples were diluted with deionized water to achieve equal protein concentrations for all samples. Prior to analyzing the samples, 5 × Loading buffer (350 mM Tris, pH 6.8, 12% SDS, 0.012% bromophenol blue, 47% glycerol) with 5% β-mercaptoethanol was added to each sample to achieve a final 1 × concentration, after which the samples were incubated at 95 °C for 10 minutes to denature the protein samples. 20–30 μg of protein was added to and run on a 15-well 4–20% Tris-HCl gel. The gel was equilibrated buffer (39 mM glycine, 48 mM, 0.037 g/L SDS, 200 mL/L methanol) for 5 minutes, then the protein were transferred to a PVDF membrane, which was incubated with 5% fetal bovine serum in TBST (20 mM Tris-HCl, pH 8.0, 150 mM, 0.5 mL/L Tween-20) for 1 h to block non-specific binding, and then probed for the primary antibody at a 1:1000 dilution with a blocking agent in TBST for 1 h at room temperature. The blot was washed with TBST, and then probed with a secondary antibody in TBST for 1 hour at room temperature. The blot was washed with TBST, and then The ECL detection kit (Millipore) was added to catalyze oxidation of luminol to emit chemiluminescence, and the membrane was visualized using X-ray film processor and X-ray film (Fujifilm SUPER RX-N-C).

Row | SMILES | IC50 at 48 h [1] [µM] | IC50 (A549 cells; Homo sapiens, A549, 48 h) [µM] | IC50 (HeLa cells [2]) [µM] | IC50 (BGC-823 cells) [µM] | activation of ATM, ATR, caspase-8, 9 and 3 (HeLa cells [3]) | IC50 (A549 cells) [µM]
1 | COc1cc([C@@H]2c3cc4c(cc3[C@@H](Nc3nncs3)[C@H]3COC(=O)[C@H]23)OCO4)cc(OC)c1O [2′N, 4β-NH-(1,3,4-thiodizole-2)-4-deoxy-4′-demethyl-podophyllotoxin] | 28.7 ± 1.31 | 2.22 ± 0.31 | 10.3 ± 0.41 | 15.4 ± 0.63 | – | –
2 | COc1cc([C@@H]2c3cc4c(cc3[C@@H](Nc3ccccn3)[C@H]3COC(=O)[C@H]23)OCO4)cc(OC)c1O [3′N, 4β-NH-(pyridine-2)-4-deoxy-4′-demethyl-podophyllotoxin] | 122 ± 5.88 | 122 ± 4.6 | 96.5 ± 7.64 | 111 ± 3.55 | – | –
3 | COc1cc([C@@H]2c3cc4c(cc3[C@@H](Nc3ncccn3)[C@H]3COC(=O)[C@H]23)OCO4)cc(OC)c1O [4′N, 4β-NH-(pyrimidine-2)-4-deoxy-4′-demethyl-podophyllotoxin] | 41.8 ± 1.75 | 70.4 ± 3.92 | 44.4 ± 2.37 | 64.2 ± 4.43 | – | –
4 | COc1cc([C@@H]2c3cc4c(cc3[C@@H](Sc3ncccn3)[C@H]3COC(=O)[C@H]23)OCO4)cc(OC)c1O [4′S, 4β-S-(pyrimidine-2)-4-deoxy-4′-demethyl-podophyllotoxin] | 140 ± 3.82 | 14 ± 1.66 | 12.92 ± 0.08 | 11.2 ± 0.35 | – | –
5 | COc1cc([C@@H]2c3cc4c(cc3[C@@H](Nc3nc5ccccc5s3)[C@H]3COC(=O)[C@H]23)OCO4)cc(OC)c1O [5′N, 4β-NH-(benzothiazole-2)-4-deoxy-4′-demethyl-podophyllotoxin] | 18.6 ± 1.48 | 14.2 ± 0.43 | 5.65 ± 0.11 | 10.5 ± 0.45 | – | –
6 | COc1cc([C@@H]2c3cc4c(cc3[C@@H](Sc3nc5ccccc5s3)[C@H]3COC(=O)[C@H]23)OCO4)cc(OC)c1O [5′S, 4β-S-(benzothiazole-2)-4-deoxy-4′-demethyl-podophyllotoxin] | 98.5 ± 3.51 | 8.25 ± 0.83 | 1.71 ± 0.07 | 1.87 ± 0.36 | – | –
7 | COc1cc([C@@H]2c3cc4c(cc3[C@@H](Nc3ncnc5nc[nH]c35)[C@H]3COC(=O)[C@H]23)OCO4)cc(OC)c1O [6′N, 4β-NH-(purine-6)-4-deoxy-4′-demethylepipodophyllotoxin] | 19.2 ± 1.31 | 15.7 ± 1.61 | 20.5 ± 0.38 | 43.2 ± 1.36 | – | –
8 | COc1cc([C@@H]2c3cc4c(cc3[C@@H](Sc3ncnc5nc[nH]c35)[C@H]3COC(=O)[C@H]23)OCO4)cc(OC)c1O [6′S, 4β-S-(purine-6)-4-deoxy-4′-demethyl-podophyllotoxin] | 27.5 ± 2.35 | 7.45 ± 0.18 | 10.3 ± 0.41 | 45 ± 3.68 | – | –
9 | COc1cc([C@@H]2c3cc4c(cc3[C@@H](Nc3nc[nH]n3)[C@H]3COC(=O)[C@H]23)OCO4)cc(OC)c1O [Compound 1′N, 4β-NH-(1,2,4-trizole-3)-4-deoxy-4′-demethyl-podophyllotoxin] | 38.6 ± 2.52 | 4.22 ± 0.43 | 4.36 ± 0.42 | 15.6 ± 0.41 | significantly weaker signal | –
10 | COc1cc([C@@H]2c3cc4c(cc3[C@@H](Nc3nncs3)[C@H]3COC(=O)[C@H]23)OCO4)cc(OC)c1OC [Compound 2N, 4β-NH-(1,3,4-thiodiazole-2)-4-deoxy-podophyllotoxin] | 18.7 ± 3.19 | 12.5 ± 0.55 | 6.33 ± 0.36 | 2.33 ± 0.24 | – | –
11 | COc1cc([C@@H]2c3cc4c(cc3[C@@H](Sc3nncs3)[C@H]3COC(=O)[C@H]23)OCO4)cc(OC)c1OC [Compound 2S] | 36.2 ± 3.81 | 1.26 ± 0.1 | 1.25 ± 0.36 | 0.31 ± 0.02 | – | –
12 | COc1cc([C@@H]2c3cc4c(cc3[C@@H](Nc3ccccn3)[C@H]3COC(=O)[C@H]23)OCO4)cc(OC)c1OC [Compound 3N, 4β-NH-(pyridine-2)-4-deoxy-podophyllotoxin] | 28.2 ± 2.58 | 28.2 ± 2.58 | 13.7 ± 2.13 | 14.3 ± 3.22 | – | –
13 | COc1cc([C@@H]2c3cc4c(cc3[C@@H](Sc3ccccn3)[C@H]3COC(=O)[C@H]23)OCO4)cc(OC)c1OC [Compound 3S, 4β-S-(pyridine-2)-4-deoxy-podophyllotoxin] | 89.7 ± 2.45 | 19.1 ± 1.52 | 0.9 ± 0.03 | 1.09 ± 0.06 | – | –
14 | COc1cc([C@@H]2c3cc4c(cc3[C@@H](Nc3ncccn3)[C@H]3COC(=O)[C@H]23)OCO4)cc(OC)c1OC [Compound 4N, 4β-NH-(pyrimidine-2)-4-deoxy-podophyllotoxin] | 47.3 ± 2.71 | 59.6 ± 3.48 | 26.4 ± 1.52 | 63.6 ± 3.77 | – | –
15 | COc1cc([C@@H]2c3cc4c(cc3[C@@H](Sc3ncccn3)[C@H]3COC(=O)[C@H]23)OCO4)cc(OC)c1OC [Compound 4S, 4β-S-(pyrimidine-2)-4-deoxy-podophyllotoxin] | 51.1 ± 3.17 | 2.4 ± 0.76 | 3.64 ± 0.46 | 0.49 ± 0.01 | – | –
16 | COc1cc([C@@H]2c3cc4c(cc3[C@@H](Nc3nc5ccccc5s3)[C@H]3COC(=O)[C@H]23)OCO4)cc(OC)c1OC [Compound 5N] | 5.33 ± 0.14 | 15.2 ± 0.43 | 2.32 ± 0.28 | 13.2 ± 0.86 | – | –
17 | COc1cc([C@@H]2c3cc4c(cc3[C@@H](Sc3nc5ccccc5s3)[C@H]3COC(=O)[C@H]23)OCO4)cc(OC)c1OC [Compound 5S, 4β-S-(benzothiazole-2)-4-deoxy-podophyllotoxin] | 31.8 ± 1.62 | 11.1 ± 1.71 | 0.97 ± 0.12 | 1.04 ± 0.13 | – | –
18 | COc1cc([C@@H]2c3cc4c(cc3[C@@H](Nc3ncnc5nc[nH]c35)[C@H]3COC(=O)[C@H]23)OCO4)cc(OC)c1OC [Compound 6N] | 13.6 ± 1.26 | 3.72 ± 0.11 | 5.85 ± 0.36 | 12.5 ± 1.35 | – | –
19 | COc1cc([C@@H]2c3cc4c(cc3[C@@H](Sc3ncnc5nc[nH]c35)[C@H]3COC(=O)[C@H]23)OCO4)cc(OC)c1OC [Compound 6S, 4β-S-(purine-6)-4-deoxy-podophyllotoxin] | 20.6 ± 1.38 | 0.57 ± 0.22 | 1.21 ± 0.13 | 11.3 ± 1.71 | – | –
20 | COc1cc([C@@H]2c3cc4c(cc3[C@@H](O[C@@H]3O[C@@H]5CO[C@@H](C)O[C@H]5[C@H](O)[C@H]3O)[C@H]3COC(=O)[C@H]23)OCO4)cc(OC)c1O [etoposide, reference compound] | 24.6 ± 3.82 | – | 59.4 ± 2.45 | 20.5 ± 2.55 | – | 20.1 ± 1.95
